According to US7029840B2 (priority 2000, dated 2006):
Like-named read-outs stand apart in the source and are kept apart here.

What was measured:
[1] = test system: N. gonorrhoeae plasmid DNA; settings: for Average MOTA Value: 60 min room temperature after DNA spike; for protection of N. gonorrhoeae plasmid DNA from degradation in human urine by endogenous nucleases: sodium citrate at 10, 20, and 40 mM, EDTA at 10, 40, 100 mM (so in the source)
Protocol: Twenty-milliliter volumes of negative pooled urine were prepared with 10, 40, and 100 mM sodium citrate (final concentration); 10, 20, and 40 mM EDTA (final concentration); and without chemical additive. In addition, a 20-ml volume of negative pooled urine was heated for 30 minutes (heated-treated urine). The samples were incubated for 60 minutes at room temperature. After the incubation step, the samples were spiked with N. gonorrhoeae plasmid DNA (2500 DNA copies/ml). The samples were incubated for 60 minutes at room temperature. After the incubation step, two-ml volumes from each sample (eight replicates) were heated for 30 minutes at 114° C. to denature the DNA.
A 1-ml volume of the 8 replicates as described above was added to ferrosoferric oxide. A 100-ul volume of 6 M glycine HCl was added to each sample. The DNA-ferrosoferric oxide complexes were separated on a magnet and washed two times with a 900-ul volume of 1 mM glycine HCl to reduce the ionic strength and remove nonspecifically bound materials. The DNA was released from the ferrosoferric oxide with 480-ul volume of elution buffer (88.3 mM KOH, 177.8 mM bicine, 12.1% (v/v) glycerol, and 11.0% (v/v) DMSO [final concentration]).
Strand Displacement Amplification (SDA) was performed according to the manufacturer's instructions (BDProbeTec™ET Chlamydia trachomatis and N. gonorrhoeae Amplified DNA Assay Package Insert L-000203 [November 1999]). A 150-ul volume of each sample was added into a priming microwell. The priming microwell plate was incubated for 20 minutes at room temperature, after which the plate was incubated at 72.5° C. The amplification microwell plate was incubated at 54° C. After 10 minutes, a 100-ul volume from each priming microwell was added into the corresponding amplification microwell. The amplification microwell plate was place in a BD ProbeTec ET instrument. Data was reported as MOTA value (metric other than acceleration).

[2] = test system: intact cells of N. gonorrhoeae; assay type: cell-based, N. gonorrhoeae ATCC 19424; settings: for Average MOTA Value: urine; for average MOTA values for day 0 versus day 6: 100 mM sodium citrate, sodium fluoride, sodium borate, 5 mM EDTA, urine at 5, 25, 35, and 45° C.
Protocol: (§1) The samples were spiked with cells of N. gonorrhoeae a final concentration 2500 cells/ml. Each sample was incubated for 14 days at room temperature. At specific time points (day 0, 6, and 14), 2.0-ml volumes of each sample (eight replicates) was centrifuged at 2000×g for 30 minutes at room temperature. The supernate was decanted and the cell pellet was resuspended with a 2.0-ml volume of BSA/PBS, and then centrifuged at 2000×g for 30 minutes at room temperature. Again, the supernatant was decanted and the cell pellet was resuspended with a 2.0-ml volume of CT/GC diluent. […] SDA was performed on the cell lysate as described in Example 1.
The samples were spiked with cells of N. gonorrhoeae at a final concentration of 2500 cells/ml. Each sample was incubated for 6 days at 5, 25, 35, and 45° C. At specific time points (day 0 and 6), the samples were processed by centrifugation at 2000×g as described in Example 2. […] SDA was performed on the cell lysates as described in Example 1.

[3] = test system: intact cells of N. gonorrhoeae; assay type: cell-based, N. gonorrhoeae ATCC 19424; settings: urine, room temperature; for average amplification MOTA values at day 0 versus day 6: 100 mM sodium citrate, sodium fluoride, sodium borate, 5 mM EDTA
Protocol: as §1
Forty-milliliter volumes of negative urine was prepared with 100 mM sodium citrate (final concentration); 5, 10, and 15% (v/v) sucrose (final concentration); 5, 10, and 15% (v/v) PVP (final concentration); 5, 10, and 15 mM magnesium chloride (final concentration); 10 and 100 mM sodium fluoride (final concentration); 10 and 100 mM sodium formate (final concentration); 10 and 100 mM sodium borate (final concentration); 0.5 and 5 mM EDTA (final concentration); 0.5 and 5 mM EGTA (final concentration); and without chemical additive. The samples were spiked with cells of N. gonorrhoeae at a final concentration of 2500 cells/ml. Each sample was incubated for 6 days at room temperature. At specific time points (day 0 and 6), the samples were processed by centrifugation at 2000×g as described in Example 2. […] SDA was performed on the cell lysate as described in Example 1.

[4] = test system: N. gonorrhoeae plasmid DNA; experiment: Stability of N. gonorrhoeae plasmid DNA in urine, 3 days at room temperature (SDA, MOTA value); assay type: biochemical, Neisseria gonorrhoeae
Protocol: The samples were incubated for 3 days at room temperature. […] SDA was performed on the isolated DNA as described in Example 1.

[5] = test system: intact cells of N. gonorrhoeae; assay type: cell-based, N. gonorrhoeae ATCC 19424; settings: for Average MOTA Value: 10 mM potassium EDTA, urine
Protocol: as §1
(§2) i) Potassium EDTA: Seventy-milliliter volumes of pooled negative urine were prepared with 10 mM potassium EDTA (final concentration). The samples were spiked with cells of N. gonorrhoeae at a final concentration of 2000 cells/ml. Each sample was incubated for 14 days at 5, 25, 33, 45, and 60° C. At specific time points (day 0, 6 and 14), the samples were processed by centrifugation at 2000×g as described in Example 3. […] SDA was performed on the cell lysates as described in Example 1.
as §2, with “ii) DNA/RNA Protect™:” for “i) Potassium EDTA:”, “10% (v/v) DNA/RNA Protect™” for “10 mM potassium EDTA”

[6] = test system: intact cells of N. gonorrhoeae; experiment: Stability of cells of N. gonorrhoeae in urine with sodium citrate, 14 days at room temperature (SDA, MOTA value); assay type: cell-based, N. gonorrhoeae ATCC 19424; settings: 100 mM; for Average MOTA Value: urine
Protocol: as §1

SMILES: O=C(O)CN(CCN(CC(=O)O)CC(=O)O)CC(=O)O [EDTA, Ethylenediaminetetraacetic acid]
- Average MOTA Value ([1]; 10 mM additive in human urine): 16103
- Average MOTA Value ([1]; 20 mM additive in human urine): 16178
- Average MOTA Value ([1]; 40 mM additive in human urine): 20007
- protection of N. gonorrhoeae plasmid DNA from degradation in human urine by endogenous nucleases [1]: protected N. gonorrhoeae plasmid DNA from degradation
- Average MOTA Value ([2]; 5 mM, 5° C., Day 0): 50132
- Average MOTA Value ([2]; 5 mM, 5° C., Day 6): 64610
- Average MOTA Value ([2]; 5 mM, 25° C., Day 0): 54871
- Average MOTA Value ([2]; 5 mM, 25° C., Day 6): 66009
- Average MOTA Value ([2]; 5 mM, 35° C., Day 0): 57077
- Average MOTA Value ([2]; 5 mM, 35° C., Day 6): 69291
- Average MOTA Value ([2]; 5 mM, 45° C., Day 0): 62891
- Average MOTA Value ([2]; 5 mM, 45° C., Day 6): 74667
- average MOTA values for day 0 versus day 6 [2]: no significant difference
- Average MOTA Value ([3]; 0.5 mM, Day 0): 35950
- Average MOTA Value ([3]; 0.5 mM, Day 6): 650
- Average MOTA Value ([3]; 5 mM, Day 0): 32392
- Average MOTA Value ([3]; 5 mM, Day 6): 34445
- average amplification MOTA values at day 0 versus day 6 [3]: not significantly different
- Average MOTA Value ([4]; 10 mM, Day 0): 32177
- Average MOTA Value ([4]; 10 mM, Day 3): 30445
- Average MOTA Value ([4]; 20 mM, Day 0): 34594
- Average MOTA Value ([4]; 20 mM, Day 3): 31366
- time for which stability of intact cells of N. gonorrhoeae in human urine was maintained ([5]; 10 mM EDTA, 5, 27, 33, 45, and 60° C.): ≥ 14 days
- Average MOTA Value ([5]; 5° C., Day 0): 26448
- Average MOTA Value ([5]; 5° C., Day 6): 35234
- Average MOTA Value ([5]; 5° C., Day 14): 36205
- Average MOTA Value ([5]; 27° C., Day 0): 26448
- Average MOTA Value ([5]; 27° C., Day 6): 31619
- Average MOTA Value ([5]; 27° C., Day 14): 36994
- Average MOTA Value ([5]; 33° C., Day 0): 26448
- Average MOTA Value ([5]; 33° C., Day 6): 34252
- Average MOTA Value ([5]; 33° C., Day 14): 38183
- Average MOTA Value ([5]; 45° C., Day 0): 26448
- Average MOTA Value ([5]; 45° C., Day 6): 36132
- Average MOTA Value ([5]; 45° C., Day 14): 41115
- Average MOTA Value ([5]; 60° C., Day 0): 26448
- Average MOTA Value ([5]; 60° C., Day 6): 32218
- Average MOTA Value ([5]; 60° C., Day 14): 26259

SMILES: O=C(O)CN(CCOCCOCCN(CC(=O)O)CC(=O)O)CC(=O)O [EGTA, Ethylenebis(oxyethylenenitrilo) tetraacetic acid]
- Average MOTA Value ([3]; 0.5 mM, Day 0): 32611
- Average MOTA Value ([3]; 0.5 mM, Day 6): 1150
- Average MOTA Value ([3]; 5 mM, Day 0): 34504
- Average MOTA Value ([3]; 5 mM, Day 6): 6931

SMILES: [Cl-].[Cl-].[Mg+2] [MgCl^2, Magnesium chloride]
- Average MOTA Value ([3]; 5 mM, Day 0): 28072
- Average MOTA Value ([3]; 5 mM, Day 6): 1507
- Average MOTA Value ([3]; 10 mM, Day 0): 27157
- Average MOTA Value ([3]; 10 mM, Day 6): 4547
- Average MOTA Value ([3]; 15 mM, Day 0): 35926
- Average MOTA Value ([3]; 15 mM, Day 6): 4868

SMILES: O.O.O.O.O.O.O.O.O.O.[Na+].[Na+].[O-]B1OB2OB([O-])OB(O1)O2 [sodium borate, Sodium borate]
- average MOTA values for day 0 versus day 6 [2]: no significant difference
- Average MOTA Value ([2]; 100 mM, 5° C., Day 0): 41940
- Average MOTA Value ([2]; 100 mM, 5° C., Day 6): 40325
- Average MOTA Value ([2]; 100 mM, 25° C., Day 0): 49622
- Average MOTA Value ([2]; 100 mM, 25° C., Day 6): 50745
- Average MOTA Value ([2]; 100 mM, 35° C., Day 0): 60308
- Average MOTA Value ([2]; 100 mM, 35° C., Day 6): 60296
- Average MOTA Value ([2]; 100 mM, 45° C., Day 0): 63343
- Average MOTA Value ([2]; 100 mM, 45° C., Day 6): 62283
- Average MOTA Value ([3]; 10 mM, Day 0): 26170
- Average MOTA Value ([3]; 10 mM, Day 6): 15464
- average amplification MOTA values at day 0 versus day 6 [3]: not significantly different
- Average MOTA Value ([3]; 100 mM, Day 0): 24607
- Average MOTA Value ([3]; 100 mM, Day 6): 28908
- Average MOTA Value ([4]; 100 mM, Day 0): 23263
- Average MOTA Value ([4]; 100 mM, Day 3): 34089

SMILES: O=C([O-])CC(O)(CC(=O)[O-])C(=O)[O-].[Na+].[Na+].[Na+] [sodium citrate, Sodium citrate, trisodium salt]
- time for which stability of intact cells of N. gonorrhoeae in human urine was maintained [6]: ≥ 14 days
- Average MOTA Value ([6]; Day 0): 30200
- Average MOTA Value ([6]; Day 6): 25391
- Average MOTA Value ([6]; Day 10): 27522
- Average MOTA Value ([6]; Day 14): 20953
- Average MOTA Value ([1]; 10 mM additive in human urine): 6673
- Average MOTA Value ([1]; 40 mM additive in human urine): 36684
- Average MOTA Value ([1]; 100 mM additive in human urine): 24069
- protection of N. gonorrhoeae plasmid DNA from degradation in human urine by endogenous nucleases [1]: protected N. gonorrhoeae plasmid DNA from degradation
- average MOTA values for day 0 versus day 6 [2]: no significant difference
- Average MOTA Value ([2]; 100 mM, 5° C., Day 0): 56773
- Average MOTA Value ([2]; 100 mM, 5° C., Day 6): 57701
- Average MOTA Value ([2]; 100 mM, 25° C., Day 0): 59703
- Average MOTA Value ([2]; 100 mM, 25° C., Day 6): 51791
- Average MOTA Value ([2]; 100 mM, 35° C., Day 0): 54238
- Average MOTA Value ([2]; 100 mM, 35° C., Day 6): 51468
- Average MOTA Value ([2]; 100 mM, 45° C., Day 0): 59944
- Average MOTA Value ([2]; 100 mM, 45° C., Day 6): 63623
- average amplification MOTA values at day 0 versus day 6 [3]: not significantly different
- Average MOTA Value ([3]; 100 mM, Day 0): 27310
- Average MOTA Value ([3]; 100 mM, Day 6): 26394
- Average MOTA Value ([4]; 100 mM, Day 0): 26852
- Average MOTA Value ([4]; 100 mM, Day 3): 30978

SMILES: [F-].[Na+] [sodium fluoride, Sodium fluoride]
- average MOTA values for day 0 versus day 6 [2]: no significant difference
- Average MOTA Value ([2]; 100 mM, 5° C., Day 0): 43807
- Average MOTA Value ([2]; 100 mM, 5° C., Day 6): 59543
- Average MOTA Value ([2]; 100 mM, 25° C., Day 0): 44945
- Average MOTA Value ([2]; 100 mM, 25° C., Day 6): 47391
- Average MOTA Value ([2]; 100 mM, 35° C., Day 0): 41608
- Average MOTA Value ([2]; 100 mM, 35° C., Day 6): 47347
- Average MOTA Value ([2]; 100 mM, 45° C., Day 0): 45741
- Average MOTA Value ([2]; 100 mM, 45° C., Day 6): 48043
- Average MOTA Value ([3]; 10 mM, Day 0): 32162
- Average MOTA Value ([3]; 10 mM, Day 6): 10894
- average amplification MOTA values at day 0 versus day 6 [3]: not significantly different
- Average MOTA Value ([3]; 100 mM, Day 0): 26385
- Average MOTA Value ([3]; 100 mM, Day 6): 24559
- Average MOTA Value ([4]; 100 mM, Day 0): 27811
- Average MOTA Value ([4]; 100 mM, Day 3): 42689

SMILES: O=C[O-].[Na+] [sodium formate, Sodium formate]
- Average MOTA Value ([3]; 10 mM, Day 0): 34446
- Average MOTA Value ([3]; 10 mM, Day 6): 2211
- Average MOTA Value ([3]; 100 mM, Day 0): 29357
- Average MOTA Value ([3]; 100 mM, Day 6): 2139

SMILES: OC[C@H]1O[C@@](CO)(O[C@H]2O[C@H](CO)[C@@H](O)[C@H](O)[C@H]2O)[C@@H](O)[C@@H]1O [sucrose, Sucrose]
- Average MOTA Value ([3]; 5% (v/v), Day 0): 28427
- Average MOTA Value ([3]; 5% (v/v), Day 6): 501
- Average MOTA Value ([3]; 10% (v/v), Day 0): 29548
- Average MOTA Value ([3]; 10% (v/v), Day 6): 5555
- Average MOTA Value ([3]; 15% (v/v), Day 0): 27391
- Average MOTA Value ([3]; 15% (v/v), Day 6): 8497
